The values below come from article PMC9312114, “Synthesis and Evaluation of Novel DNA Minor Groove Binders as Antiamoebic Agents” (Antibiotics, 2022).

Converted amounts (≈) assume the structure as drawn.

For data set [1], the system named is Acanthamoeba castellanii on HeLa cell monolayers. Description: Cytopathogenicity assay (amoeba-mediated host-cell death). Type of data set: cell-based. The note with it: amoebae pretreated with 50 µM for 2 h, then 24 h on HeLa cells, negative control 100%. How it is done: Amoeba-mediated host-cell death was determined by treating 5 × 10^5 amoebae with 50 µM of compounds. The amoeba-containing plate was then placed in the incubator for 2 h at 30 °C. Following the 2 h incubation period, the treated amoebae were put on confluent HeLa cell monolayers. The plate containing the treated amoebae and HeLa cells was incubated for 24 h. Progressing the incubation period, the supernatant was collected, and the cytotoxicity was determined. Accurate results were ensured through the addition of negative and positive controls. The untreated amoebae, alone, on the cells served as the negative control, while the cells treated with Triton X-100 served as the positive control.

Data set [2] relates to Acanthamoeba castellanii. Description: Amoebicidal assay. The data set is classed as cell-based, Acanthamoeba castellanii genotype T4 (ATCC 50492). The note with it: for MIC50 / viability at 50 µM: Acanthamoeba castellanii; for MIC50: read-out: MIC50 (minimum inhibitory concentration required to inhibit 50% of amoeba growth); for viability at 50 µM: 24 h, negative control 100%, read-out: amoeba viability; for A. castellanii, 25 µM: Table 2, 25 µM; for A. castellanii, 25 µM / A. castellanii, 75 µM / A. castellanii, 100 µM: amoeba alone 100; for A. castellanii, 75 µM: Table 2, 75 µM; for A. castellanii, 100 µM: Table 2, 100 µM. As for the experimental part:
Acanthamoeba castellanii genotype T4 (ATCC 50492) was cultivated in 10 mL growth medium of peptone yeast glucose (PYG) in tissue flasks (Baig, et al., 2021; Anwar, et al., 2019). The growth medium, PYG, consists of 0.75% proteose peptone, 0.75% yeast extract, and 1.5% glucose. Next, the amoebae were kept in tissue flasks and incubated at 30 °C.
To determine the compounds’ antiamoebic effects, amoebicidal assays were conducted. The 5 × 10^5 amoebae were placed in a 24-well plate and brought to a final volume of 500 µL. […] The 24-well plate was then placed in a 30 °C incubator for 24 h. Positive and negative controls were added to the assay in order to ensure reliable results. Serving as the negative control was the amoebae alone, with RPMI [4]. Meanwhile, amoebae, along with 0.25% sodium dodecyl sulphate (SDS), were used as the positive control. Through the addition of 0.1% methylene blue, live and dead amoebae were distinguished. Additionally, significant compounds were identified by conducting a Student’s t-test with a two-tailed distribution. Furthermore, the MIC50 values of three compounds were determined by using concentrations of […], 75, and 100 µM.

The test system of data set [3] is Acanthamoeba castellanii cysts. Description: Excystation assay. Type of data set: cell-based. The note with it: cysts in PYG, negative control 100%, read-out: viable trophozoites (re-emergence of cysts to trophozoites). As for the experimental part:
Amoeba culture was suspended in 3 mL phosphate-buffered saline (PBS) and placed on non-nutrient bacteriological agar plates to allow for the growing of Acanthamoeba castellanii cysts. After two weeks, PBS was applied to plates containing amoeba cysts, which were then scraped off. The amoebae were centrifuged at 3000× g for 10 min, and the resulting pellet was resuspended in RPMI. The 5 × 10^5 cysts were then incubated in PYG, along with 50 µM of the compounds. To ensure accuracy, amoeba cysts in PYG alone were considered as the negative control, whereas amoeba cysts in RPMI alone were taken as the positive control, as the cysts would not be able to revert back to trophozoites. The amoeba trophozoites were then numbered by using a haemocytometer.

The subject of data set [4] is Acanthamoeba castellanii. Description: Encystation assay. The note with it: 16% glucose, 48 h, negative control 100% cysts. Type of data set: cell-based. As for the experimental part: The effects of the compounds on amoeba encystation were determined through the conduction of encystation assays. Briefly, 1 × 10^6 trophozoites were incubated with the compounds in a final concentration of 16% filter-sterilized glucose. Following a 48 h incubation period, 0.1% SDS was added per well for 20 min. The cysts were then counted by using a haemocytometer. To ensure accuracy, Acanthamoeba castellanii was cultured in 16% glucose, serving as the negative control.

For the next data set, the system named is HeLa cells. Briefly: Cytotoxicity assay (LDH release). Type of data set: cell-based, human. The note with it: for cytotoxicity against human HeLa cells: 50 µM, 24 h, LDH release, Triton X-100 = 100%. How it is done:
HeLa cells were acquired from American Type Culture Collection (ATCC) of identification ATCC CCL-2, Singapore. The cells are utilized to conduct cytotoxicity and cytopathogenicity assays. Through their cultivation in complete media, the cells were grown, and then they were placed in a 95% humidifying incubator at 37 °C and 5% CO2. Complete medium comprises Roswell Park Memorial Media (RPMI), 1% penicillin–streptomycin, 1% minimum essential medium amino acids, 1% L-glutamine, and 10% fetal bovine serum (FBS). To determine the toxicity of the compounds against human HeLa cells, cytotoxicity assays were conducted. In short, HeLa cells were cultured in 96-well plates and treated with the compounds. The plate was then placed in a humidifying incubator with 95% humidity and 5% CO2, at 37 °C, for 24 h. After 24 h, the supernatant was collected, and the cytotoxicity of the compounds was determined through a cytotoxicity detection kit that measured the quantity of lactate dehydrogenase (LDH) release. Accurate results were ensured through the addition of positive and negative controls. Untreated HeLa cells served as the negative control, whereas HeLa cells treated with 1% Triton X-100 served as the positive control. Finally, the cytotoxic properties were numerically determined by following the necessary calculations: (absorbance of media from cells treated with the drugs—absorbance of media from cells of negative control)/(absorbance of media from cells of positive control—absorbance of media from cells of negative control) × 100 [19].

The subject of data set [5] is Acanthamoeba cysts and trophozoites. More on the design: method as in PMID 9736540. The note with it: 0.5 to 2.5% solution; cited from earlier work.

Consider `CC(C)c1sc(NC(=O)c2cc(NC(=O)c3cc(NC(=O)c4nccn4C)cn3C)cn2C)nc1C(=O)NCCCN(C)C` [MGB3, N-(3-(dimethylamino)propyl)-5-isopropyl-2-(1-methyl-4-(1-methyl-4-(1-methyl-1H-imidazole-2-carboxamido)-1H-pyrrole-2-carboxamido)-1H-pyrrole-2-carboxamido)thiazole-4-carboxamide], for which the “amoeba-mediated host-cell death (cytotoxic activity due to amoeba)” value (from here on “amoeba-mediated host-cell death”) in data set [1] was 41.5%. For the same compound, in the data set with Acanthamoeba castellanii [2], the MIC50 is 65.9 µM (≈ 41 µg/mL); the viability at 50 µM was determined as 76.2%; the “A. castellanii, 25 µM” value stood at 43.7 ± 3.8; the “A. castellanii, 75 µM” value worked out at 51 ± 4.7. For the same compound, the “A. castellanii, 100 µM” value in the data set with Acanthamoeba castellanii [2] turned out to be 46 ± 4.8. Further, the viability at 50 µM in data set [3] stood at 64.3%. This compound had a cysts present in the data set on Acanthamoeba castellanii [4] of 83.5%. For the same compound, the “cytotoxicity against human HeLa cells” value in the data set on HeLa cells worked out at 16.2%.
As for `CC(C)c1sc(NC(=O)c2cc(NC(=O)c3cc(NC(=O)c4cscn4)cn3C)cn2C)nc1C(=O)NCCCN(C)C` [MGB4, N-(3-(dimethylamino)propyl)-5-isopropyl-2-(1-methyl-4-(1-methyl-4-(thiazole-4-carboxamido)-1H-pyrrole-2-carboxamido)-1H-pyrrole-2-carboxamido)thiazole-4-carboxamide], the “amoeba-mediated host-cell death” value in data set [1] is given as 49.4%. Moreover, the viability at 50 µM was 95.2% with Acanthamoeba castellanii [2] and 47.3% in data set [3]. The same compound returned a cysts present in the data set on Acanthamoeba castellanii [4] of 82.3%. Moreover, in the data set on HeLa cells, the “cytotoxicity against human HeLa cells” value is given as 18.4%.
As to `CN(C)CCCNC(=O)c1cc(NC(=O)c2cc(NC(=O)c3cc(NC(=O)c4cscn4)cn3C)cn2C)cn1C` [MGB6, N-(5-((5-((5-((3-(dimethylamino)propyl]carbamoyl)-1-methyl-1H-pyrrol-3-yl)carbamoyl)-1-methyl-1H-pyrrol-3-yl}carbamoyl)-1-methyl-1H-pyrrol-3-yl)-1,3-thiazole-4-carboxamide], the “amoeba-mediated host-cell death” value in data set [1] stood at 49.5%. Moreover, in the data set with Acanthamoeba castellanii [2], the MIC50 was 58.3 µM (≈ 33.8 µg/mL); the viability at 50 µM came to 59.5%; the “A. castellanii, 25 µM” value stood at 57 ± 2.4; the “A. castellanii, 75 µM” value came to 48 ± 5.5. Also, the “A. castellanii, 100 µM” value in the data set with Acanthamoeba castellanii [2] came out at 45 ± 1.4. The viability at 50 µM in data set [3] was determined as 41.4%. For the same compound, the cysts present in the data set with Acanthamoeba castellanii [4] amounted to 46.3%. Also, the “cytotoxicity against human HeLa cells” value with HeLa cells was 14.4%.
Consider `Cn1cc(NC(=O)c2cc(NC(=O)c3cc4ccccc4oc3=O)cn2C)cc1C(=O)NCCCN1CCOCC1` [MGB16, 1-methyl-N-(1-methyl-5-{[3-(morpholin-4-yl)propyl]carbamoyl}-1H-pyrrol-3-yl)-4-(2-oxo-2H-chromene-3-amido)-1H-pyrrole-2-carboxamide], for which the “amoeba-mediated host-cell death” value in data set [1] was 88.6%. Besides, the figures for the viability at 50 µM (with Acanthamoeba castellanii [2]; in data set [3]) were 43.2% and 51.7%, respectively. The compound further gave a cysts present in the data set with Acanthamoeba castellanii [4] of 45.6%. In addition, the “cytotoxicity against human HeLa cells” value with HeLa cells is 12.7%.
Regarding `Cn1cc(NC(=O)c2cc(NC(=O)CCSc3ccc4ccccc4c3)cn2C)cc1C(=O)NCCCN1CCOCC1` [MGB20, 1-methyl-4-(1-methyl-4-(3-(naphthalen-2-ylthio)propanamido)-1H-pyrrole-2-carboxamido)-N-(3-morpholinopropyl)-1H-pyrrole-2-carboxamide], the “amoeba-mediated host-cell death” value in data set [1] is on record as 83.2%. Besides, in the data set with Acanthamoeba castellanii [2], the MIC50 came to 83.6 µM (≈ 50.4 µg/mL); the viability at 50 µM was found to be 81.9%; the “A. castellanii, 25 µM” value is reported as 64 ± 3.2; the “A. castellanii, 75 µM” value amounted to 54.6 ± 5.8. For the same compound, the “A. castellanii, 100 µM” value in the data set with Acanthamoeba castellanii [2] is 48 ± 1.1. Besides, in data set [3], the viability at 50 µM amounted to 96%. In the data set with Acanthamoeba castellanii [4], this compound registered a cysts present of 39%. The “cytotoxicity against human HeLa cells” value in the data set with HeLa cells stood at 31.4%.
`Cc1ccc(CSCCC(=O)Nc2cc(C(=O)Nc3cc(C(=O)NCCCN(C)C)n(C)c3)n(C)c2)cc1` [MGB22, N-(3-(dimethylamino)propyl)-1-methyl-4-(1-methyl-4-(3-((4-methylbenzyl)thio)propanamido)-1H-pyrrole-2-carboxamido)-1H-pyrrole-2-carboxamide]: the “amoeba-mediated host-cell death” value in data set [1] came to 71.5%. In addition, the viability at 50 µM was 66.5% with Acanthamoeba castellanii [2] and 52.9% in data set [3]. The cysts present in the data set on Acanthamoeba castellanii [4] was 30.3%. For the same compound, the “cytotoxicity against human HeLa cells” value in the data set on HeLa cells is recorded as 33.7%.
As for `CN(C)CCCNC(=O)c1cc(NC(=O)c2cc(NC(=O)c3ccc(C#Cc4ccccc4)cc3)cn2C)cn1C` [MGB26, N-(3-(dimethylamino)propyl)-1-methyl-4-(1-methyl-4-(4(phenylethynyl)benzamido)-1H-pyrrole-2-carboxamido)-1H-pyrrole-2-carboxamide], the “amoeba-mediated host-cell death” value in data set [1] was determined as 67.3%. Besides, the viability at 50 µM came to 82.7% with Acanthamoeba castellanii [2] and 79.1% in data set [3]. In the data set with Acanthamoeba castellanii [4], this compound showed a cysts present of 52.3%. Moreover, the “cytotoxicity against human HeLa cells” value in the data set on HeLa cells turned out to be 33.5%.
With `Cn1cc(NC(=O)c2cc(NC(=O)c3ccc(C#Cc4ccccc4)cc3)cn2C)cc1C(=O)NCCCN1CCOCC1` [MGB28, 1-methyl-4-(1-methyl-4-(4-(phenylethynyl)benzamido)-1H-pyrrole-2-carboxamido)-N-(3-morpholinopropyl)-1H-pyrrole-2-carboxamide], in data set [1], the “amoeba-mediated host-cell death” value turned out to be 91.9%. Besides, the viability at 50 µM is 97.2% in the data set on Acanthamoeba castellanii [2] and 40.6% in data set [3]. The compound further gave a cysts present with Acanthamoeba castellanii [4] of 29.6%. Further, the “cytotoxicity against human HeLa cells” value in the data set on HeLa cells came to 13.7%.
Turning to `CN(C)CCCNC(=O)c1cc(NC(=O)c2cc(NC(=O)c3ccc(/C=C/c4ccccc4)cc3)cn2C)cn1C` [MGB30, (E)-N-(3-(dimethylamino)propyl)-1-methyl-4-(1-methyl-4-(4-styrylbenzamido)-1H-pyrrole-2-carboxamido)-1H-pyrrole-2-carboxamide], the “amoeba-mediated host-cell death” value in data set [1] came to 87.3%. Further, the values for the viability at 50 µM (in the data set on Acanthamoeba castellanii [2]; in data set [3]) were 63.4% and 78.1%, respectively. Further, in the data set on Acanthamoeba castellanii [4], the cysts present is on record as 27.8%. In addition, in the data set on HeLa cells, the “cytotoxicity against human HeLa cells” value turned out to be 34%.
The matching figures for `Cn1cc(NC(=O)c2cc(NC(=O)c3ccc(/C=C/c4ccccc4)cc3)cn2C)cc1C(=O)NCCCN1CCOCC1` [MGB32, (E)-1-methyl-4-(1-methyl-4-(4-styrylbenzamido)-1H-pyrrole-2-carboxamido)-N-(3-morpholinopropyl)-1H-pyrrole-2-carboxamide]: 96.3%, 80.1%, 62.1%, 41.5% and 22.4%.
As to Triton X-100 [reference compound], the “toxic activity (positive control)” value in the data set with HeLa cells turned out to be 100%.
As for povidone-iodine, in data set [5], the antiamoebic activity result is reported as “good amount of antiamoebic activity”.
